These are literature values, as cited in patent US20230243814A1, “CHEMICAL CLAS[…] AND METHOD FOR PLANTS” (priority 2020, published 2023).

Like-named read-outs stand apart in the source and are kept apart here.

Data set [1] concerns brain wave (EEG) activity. The conditions noted are these: for beta wave activity (EEG) / alpha wave activity (EEG) / beta and other absolute wave activity (EEG): inhalation; for alpha wave boost: focus / beta wave boost: creativity: relative magnitude in words. On alpha wave activity (EEG): test concentration or dose not given here. On beta and other absolute wave activity (EEG): test concentration or dose not given here. On beta wave activity (EEG): test concentration or dose not given here.
In data set [2] the target is AChE (acetylcholinesterase) (Homo sapiens, UniProt P22303). The conditions noted are these: relative magnitude of the activity in words.
For data set [3] the following is noted: relative magnitude of the activity in words.
The conditions of data set [4]: relative magnitude of the activity in words. This is another data set of the same source.
The conditions of data set [5]: relative magnitude of the activity in words. The source holds these as a separate data set.
The conditions of data set [6]: relative magnitude of the activity in words. This is another data set of the same source.
For data set [7] the following is noted: relative magnitude of the activity in words. The source holds these as a separate data set.
The conditions of data set [8]: relative magnitude of the activity in words. The source holds these as a separate data set.
Another data set relates to GABA A. As to conditions: relative magnitude of the activity in words.
For data set [9] the following is noted: relative magnitude of the activity in words. This is another data set of the same source.

Sequence of AChE (acetylcholinesterase) (P22303 32-614, species assumed): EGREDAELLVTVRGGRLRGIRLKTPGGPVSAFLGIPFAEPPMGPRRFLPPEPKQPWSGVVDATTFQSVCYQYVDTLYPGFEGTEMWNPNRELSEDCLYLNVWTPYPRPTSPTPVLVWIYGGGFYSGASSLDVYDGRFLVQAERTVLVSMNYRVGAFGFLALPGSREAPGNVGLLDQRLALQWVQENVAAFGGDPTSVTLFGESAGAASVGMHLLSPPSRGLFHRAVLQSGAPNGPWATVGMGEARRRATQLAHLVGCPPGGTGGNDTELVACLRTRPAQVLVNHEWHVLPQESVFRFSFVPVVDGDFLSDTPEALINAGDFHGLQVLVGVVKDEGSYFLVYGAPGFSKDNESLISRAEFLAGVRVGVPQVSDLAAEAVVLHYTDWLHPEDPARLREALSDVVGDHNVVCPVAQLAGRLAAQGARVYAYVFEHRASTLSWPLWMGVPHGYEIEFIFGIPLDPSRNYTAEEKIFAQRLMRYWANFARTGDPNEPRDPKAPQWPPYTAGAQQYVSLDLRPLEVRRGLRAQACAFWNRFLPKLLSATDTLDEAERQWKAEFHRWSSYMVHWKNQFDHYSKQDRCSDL

As for `C=C(C)C1CC=C(C)CC1` (single isomer, unassigned; (+)) [(+) limonene], the “beta wave activity (EEG)” value in data set [1] (all subjects) was “increase relative high beta wave activity”. In data set [1] (men), the “alpha wave activity (EEG)” value is “no increase in alpha wave activity”; the “beta and other absolute wave activity (EEG)” value is on record as “relative high beta activity increase”. Besides, in data set [1] (women), the “alpha wave activity (EEG)” value is listed as “increased absolute fast alpha wave activity” and the “beta wave activity (EEG)” value is on record as “decreased relative mid beta wave activity”.

Consider `CC1=CCC2C(C1)C2(C)C` (centres unmarked) [3 carene], for which the AChEl entry in data set [2] is “very strong”. Also, the antinociceptive pain blocker entry in [3] is recorded as “no notable”. Further, the analgesic pain relief result in data set [4] is on record as “no notable”.

With `CC(C)=CCC[C@](C)(O)[C@@H]1CC=C(C)CC1` [a bisabolol], the AChEl entry in [2] is “no notable”. Besides, the sedative result in [5] is reported as “no notable”. Moreover, the muscle relaxant entry in [6] is “very strong”. The antinociceptive pain blocker result in data set [3] is “very strong”. Further, in [4], the analgesic pain relief result was “no notable”.

With `C=C/C(C)=C/C/C=C(\C)CCC=C(C)C` [alpha farnesene], the antinociceptive pain blocker result in [3] is recorded as “no notable”. Further, in data set [4], the analgesic pain relief entry is on record as “no notable”.

Turning to `CC1=CC[C@H](C(C)C)C=C1` [alpha phellandrene], in [2], the AChEl entry is listed as “no notable”. Besides, in [5], the sedative result is reported as “no notable”. Moreover, in data set [7], the anti depressant result was “moderate”. For the same compound, in data set [3], the antinociceptive pain blocker result is “very strong”. The analgesic pain relief result in [4] is reported as “moderate”.

As for `CC1=CCC2CC1C2(C)C` (stereo not drawn) [alpha pinene], in data set [2], the AChEl result is given as “very strong”. Besides, in data set [5], the sedative result is recorded as “agonistic”. Moreover, the anti depressant result in data set [7] was “moderate”. Besides, the anti anxiety entry in data set [8] is listed as “moderate”. Also, the antinociceptive pain blocker entry in [3] was “no notable”. Further, the analgesic pain relief entry in data set [4] is “weak”. In addition, the “alpha wave boost: focus” value in data set [1] (no gender qualifier) is given as “moderate”. Also, the “beta wave boost: creativity” value in [1] (women only) was “very strong”. For the same compound, in the data set on GABA A, the “GABA A Modulation” value is “moderate”. In addition, in data set [9], the “motor stimulation (EPM)” value is listed as “moderate”.

Take `CC1=CC=C(C(C)C)CC1` [alpha terpinene]: the AChEl result in data set [2] is “very strong”. The antinociceptive pain blocker result in data set [3] is “no notable”.

As to `CC1=CC[C@@H](C(C)(C)O)CC1` [alpha terpineol], the AChEl result in data set [2] was “no notable”. In [5], the sedative result was “moderate”. Moreover, the muscle relaxant result in data set [6] is on record as “very strong”. Besides, in [3], the antinociceptive pain blocker result is “very strong”. Moreover, the analgesic pain relief result in data set [4] is recorded as “very strong”.

Regarding `C=C1CC/C=C(\C)CC[C@@H]2[C@@H]1CC2(C)C` [beta caryophyllene], the AChEl entry in data set [2] is reported as “no notable”. In addition, the sedative entry in [5] is on record as “no notable”. The anti depressant result in data set [7] is on record as “moderate”. Further, the anti anxiety result in data set [8] is on record as “moderate”. Further, in [3], the antinociceptive pain blocker result is “no notable”. Further, the analgesic pain relief entry in data set [4] is “moderate”.

As to `C=CC(=C)CC/C=C(\C)CCC=C(C)C` [beta farnesene], the antinociceptive pain blocker entry in [3] is “no notable”. Further, the analgesic pain relief result in [4] is given as “no notable”.

Take `C=CC(=C)CCC=C(C)C` [beta myrcene]: in [2], the AChEl result is recorded as “no notable”. In addition, the sedative result in [5] is on record as “weak”. The muscle relaxant entry in data set [6] was “moderate”. Moreover, in data set [3], the antinociceptive pain blocker entry is listed as “no notable”. Besides, the analgesic pain relief entry in data set [4] was “moderate”.

In the case of `C=C/C(C)=C/CC=C(C)C` [beta ocimene], in [2], the AChEl result is “very strong”. Moreover, the antinociceptive pain blocker result in [3] was “no notable”. The analgesic pain relief entry in data set [4] is recorded as “no notable”.

Turning to `C=C1CCC2CC1C2(C)C` (stereo not drawn) [beta pinene], the AChEl result in data set [2] is reported as “no notable”. The sedative result in [5] is listed as “moderate”. Moreover, the anti depressant result in data set [7] was “moderate”. In addition, the antinociceptive pain blocker result in [3] is “no notable”. The analgesic pain relief entry in data set [4] was “moderate”. In data set [1] (women only), the “beta wave boost: creativity” value was “very strong”.

Regarding `C=C1C2CCC(C2)C1(C)C` (centres unmarked) [camphene], the AChEl entry in data set [2] was “no notable”. Further, in data set [5], the sedative result is “moderate”. In [3], the antinociceptive pain blocker entry is “no notable”. In addition, in data set [4], the analgesic pain relief result is reported as “no notable”.

As to `CC12CCC(CC1)C(C)(C)O2` [eucalyptol], the AChEl entry in [2] is listed as “very strong”. Further, the antinociceptive pain blocker result in data set [3] was “no notable”.

With `C=CCc1ccc(O)c(OC)c1` [eugenol], the antinociceptive pain blocker result in data set [3] was “very strong”.

Turning to `CC12CCC(C1)C(C)(C)C2O` (centres unmarked) [fenchol], in data set [2], the AChEl result is “no notable”. In addition, in data set [5], the sedative entry is “moderate”. Moreover, the antinociceptive pain blocker entry in data set [3] was “no notable”. For the same compound, the analgesic pain relief result in data set [4] is listed as “no notable”.

With `C[C@H]1CC[C@@H](C(C)(C)O)CC2=C1CC[C@@H]2C` [guiaol], the AChEl entry in data set [2] is listed as “no notable”. Besides, in data set [5], the sedative result is reported as “no notable”. For the same compound, the antinociceptive pain blocker result in [3] is “no notable”.

`C/C1=C\CC/C(C)=C/CC(C)(C)/C=C/C1` [humulene]: in data set [2], the AChEl result is given as “no notable”. In addition, the sedative entry in data set [5] was “no notable”. Moreover, in data set [3], the antinociceptive pain blocker result is “no notable”. Also, the analgesic pain relief entry in data set [4] is on record as “no notable”.

With `C=C(C)[C@H]1CC=C(C)CC1` [limonene], the AChEl entry in [2] is “agonistic”. The anti depressant entry in data set [7] is “moderate”. Further, in data set [3], the antinociceptive pain blocker entry is “no notable”. In data set [4], the analgesic pain relief entry is on record as “moderate”. The “beta wave boost: creativity” value in [1] (women only) is given as “very strong”.

Consider `C=CC(C)(O)CCC=C(C)C` (centres unmarked) [linalool], for which the AChEl result in data set [2] is listed as “no notable”. The sedative entry in data set [5] is on record as “very strong”. In data set [7], the anti depressant result is given as “very strong”. In addition, the anti anxiety entry in [8] is reported as “very strong”. The antinociceptive pain blocker entry in data set [3] was “very strong”. Also, the analgesic pain relief result in data set [4] is on record as “moderate”. Also, in the data set on GABA A, the “GABA A Modulation” value is given as “very strong”.

Consider `C=CC(C)(O)CCC=C(C)CCC=C(C)C` (centres unmarked) [nerolidol], for which, in data set [2], the AChEl result is on record as “no notable”. Further, the sedative entry in data set [5] is reported as “very strong”. Besides, the anti anxiety entry in [8] is reported as “very strong”. Moreover, the antinociceptive pain blocker entry in data set [3] is recorded as “very strong”. Besides, in [4], the analgesic pain relief result is reported as “moderate”.

Take `CC1=CCC(=C(C)C)CC1` [terpinolene]: the AChEl result in [2] is “no notable”. Moreover, the sedative entry in [5] is “weak”. For the same compound, the muscle relaxant result in data set [6] was “moderate”. The antinociceptive pain blocker entry in data set [3] is “no notable”. Further, the analgesic pain relief entry in data set [4] was “no notable”. Further, in data set [1] (all subjects), the “alpha wave activity (EEG)” value was “increase relative fast alpha wave activity” and the “beta wave activity (EEG)” value is “decrease mid beta wave activity”. Besides, in data set [1] (men), the “alpha wave activity (EEG)” value was “no increase in alpha wave activity”; the “beta and other absolute wave activity (EEG)” value is recorded as “decrease in relative mid beta wave activity”. The “alpha wave activity (EEG)” value in [1] (women) was “increased absolute fast alpha wave activity”. Besides, in [1] (women only), the “alpha wave boost: focus” value is recorded as “very strong”.

On to (+) alpha pinene, for which, in data set [1] (men), the “alpha wave activity (EEG)” value is given as “no impact on alpha waves”; the “beta and other absolute wave activity (EEG)” value was “significant decreases in absolute waves such as theta, beta, low beta and high beta”. Further, in data set [1] (women), the “alpha wave activity (EEG)” value is given as “significantly (P<0.05) increased”; the “beta wave activity (EEG)” value was “absolute beta wave and absolute high beta wave activity significantly (P<0.05) increased”.

(+) beta pinene: in [1] (men), the “alpha wave activity (EEG)” value is given as “no impact on alpha waves”; the “beta and other absolute wave activity (EEG)” value was “no significant changes in the absolute waves”. Further, in data set [1] (women), the “alpha wave activity (EEG)” value is on record as “significantly increased” and the “beta wave activity (EEG)” value was “significantly increased”.
